Results on 13 compounds are retold here after PubChem BioAssay (NCI).

What all share (assay): NCI-60 cell line screen, 48 h
For test [1], the system named is NCI-H460 lung.
Test [2] deals with UACC-257 melanoma.
The test system of test [3] is OVCAR-5 ovarian.
Test [4] has as its system BT-549 breast.
Test [5] relates to 786-0 renal.
The test system of test [6] is MCF7 breast.
In test [7] the test system is A498 renal.
For test [8], the system named is UACC-62 melanoma.
Test [9] concerns SF-539 CNS.
The test system of test [10] is KM12 colon.
Test [11] deals with MDA-MB-231 breast.

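Protocol summary: plate cells (96-well), add compound at 5 concentrations, incubate 48 h, interpolate endpoints linearly. Definition used: TGI = concentration required for complete inhibition of growth.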 Where a SMILES comes first, the peptide text is derived from it.

`CCOC(=O)COC1=Nc2cc(OC)c(OC)c3nc(Cl)cc(c23)C1=O`: the TGI in test [1] is 39.3 µM; in test [2], 3.21 µM; in [3] it was 4.11 µM; in [4] it was 3.45 µM; in test [5], 3.04 µM; in test [6], 3.46 µM. For the same compound, the TGI in test [7] came to 23.5 µM; in test [8] it was 3.17 µM; in test [9], 3.87 µM; in test [10], 28.6 µM; in test [11], 3.28 µM.
Regarding `NC(=O)CC[C@H]1C(=O)N=C(N)N1C(=O)OCc1ccccc1`, the TGI in [1], in test [2], in test [3], in [4], in [5] and in test [6] was more than 100 µM throughout. Besides, the TGI in test [7], in test [8], in [10] and in [11] was more than 100 µM in each case.
For `O=P1(N(CCCl)CCCl)NCCCO1` (stereo unspecified), the TGI in [1] was more than 238 µM; in test [2], more than 250 µM; in test [3], more than 238 µM; in [4], more than 250 µM; in test [5], more than 250 µM; in test [6], more than 250 µM. Moreover, the TGI was more than 250 µM in test [7]; more than 250 µM in [8]; more than 250 µM in [9]; more than 238 µM in test [10]; more than 250 µM in test [11].
Turning to `Oc1ccc(O)c(Sc2nnc(CCCCCCCCc3nnc(Sc4cc(O)ccc4O)o3)o2)c1`, the TGI in test [1] is more than 100 µM; in [2], more than 100 µM; in [3], more than 100 µM; in test [4], more than 100 µM; in test [5], 35.7 µM; in test [6], 94.1 µM. The TGI in test [7], in [8], in [10] and in test [11] was more than 100 µM each time.
As to `CCCCNC(=S)Nc1nc(C(=O)NNC(=S)NCc2ccccc2)cs1`, the TGI in [2] was 83.9 µM; in test [3], more than 100 µM; in test [4], more than 100 µM; in [5], more than 100 µM; in test [6], more than 100 µM; in test [7] it was more than 100 µM. The TGI was more than 100 µM in [8], 68.6 µM in [9], more than 100 µM in test [10] and more than 100 µM in test [11].
As to `C/C(=C\COP(=O)(O)OP(=O)(O)O)CC/C=C(\C)CNc1ccccc1`, the TGI in test [1] was more than 50 µM; in [2] it was more than 50 µM; in [3], more than 50 µM; in test [4] it was 44.5 µM; in test [5], more than 50 µM; in test [6], more than 50 µM. The TGI in test [8], in [9], in test [10] and in [11] was more than 50 µM each time.
Regarding `Cn1cnc(/C=C/C#N)c1`, the TGI in test [1], in test [2], in test [3], in test [4], in test [6] and in test [7] was more than 100 µM throughout. Further, the TGI in test [8], in test [9], in test [10] and in test [11] was more than 100 µM each time.
For `O=c1cnc2cc3ccccc3cc2[nH]1`, the TGI in [1], in test [2], in [3], in [4], in test [5] and in test [6] was more than 100 µM in each case. Besides, the TGI in [7], in test [10] and in [11] was more than 100 µM throughout.
On to `CCOc1ccccc1N=NC1C(=O)N(C(=O)CC(=O)Nc2ccccc2OC)N=C1C` (stereo unspecified), for which the TGI in test [1], in test [3], in test [4], in test [5], in test [6] and in [7] was more than 100 µM each time. Also, the TGI in test [8], in test [9], in test [10] and in test [11] was more than 100 µM throughout.
With `COc1ccc(OC)c(-c2cn3c(n2)sc2ccccc23)c1`, the TGI in test [1], in [2], in [3], in test [4], in [5] and in test [6] was more than 100 µM in each case. Also, the TGI in test [8], in test [9], in [10] and in [11] was more than 100 µM each time.
Regarding `COC(CC1(CCNc2ccccc2)C(=O)N(COCC[Si](C)(C)C)c2ccccc21)OC` (stereo unspecified), the TGI in test [1] stood at 34.4 µM; in test [2], 29.5 µM; in [3] it was 35 µM; in test [4], 32.5 µM; in [5], 25.4 µM; in test [6], 30.4 µM. Also, the TGI came to 47.5 µM in test [7], 29.8 µM in test [8], 23.8 µM in test [10] and 48.4 µM in test [11].
Take `Cc1sc2nc3n(sc4nc5sc(C)c(C)c5c(=O)n43)c(=O)c2c1C`: the TGI in [1], in [2], in [3], in [4], in [5] and in test [6] was more than 100 µM throughout. Moreover, the TGI in test [8] is 87.6 µM; in test [9], more than 100 µM; in test [10] it was more than 100 µM; in test [11] it was more than 100 µM.
On to `CCC(C)C(NC(=O)C1CCCN1)C(=O)NC(C(=O)NCC(=O)NC(CC(N)=O)C(=O)NC(CC(C)C)C(=O)NC(CC(C)C)C(=O)NC(CCCCN)C(N)=O)C(C)C` (stereo unspecified) (H-PIVGNLLK-NH2; configuration not given here), for which the TGI in test [2], in [3], in [4], in test [5], in test [6] and in [7] was more than 75 µM each time. The TGI in test [8], in [9], in [10] and in test [11] was more than 75 µM throughout.
